# Laboratory results published in patent US20250302795A1, “SMALL MOLECULE COMPOUNDS WITH NEGATIVE REGULATORY EFFECTS ON Nrf2 SIGNALING [sequence] AND THEIR POTENTIAL APPLICATIONS” (Beijing Hebabiz Biotechnology Co., Inc., priority 2022, published 2025).
# Experiments:
# Type in all cases: in vivo, rat
# [1] = test system: rats with non-alcoholic steatohepatitis induced by high-fat diet; assay: Liver indices, non-alcoholic steatohepatitis model induced by high-fat diet; conditions: for Liver Indices: high-fat diet model, positive control group
# Procedure: (§1) The normal control group was fed a standard diet for twelve weeks while the other groups were fed a high-fat diet consisting of 88% basal diet+10% lard+2% cholesterol for twelve weeks. After establishing the model, the drug groups received their respective treatments at a dosage of 10 ml/kg while the normal and model groups received an equal volume of 0.5% CMC-Na solution. The rats were provided with ad libitum access to water and food, while the animal chamber was maintained under controlled conditions of quietness, natural lighting, a temperature of 25±0.5° C., and a humidity level of 55±5%. The rats' body weights were measured once per week and recorded.
# (3) Liver indices was determined by dividing the wet weight of the liver by the body weight of rats and multiplying by 100%, after liver tissue was isolated, washed with normal saline, dried using filter paper, and weighed following blood sampling from the abdominal aorta. (4) HE staining and oil red staining were performed on liver tissue samples obtained from the abdominal aorta of rats. The tissue was fixed in 10% neutral formalin, followed by embedding, slicing, dewaxing, staining, transparency treatment, and sealing using routine procedures. Microscopic examination was conducted to observe the pathological changes in rat liver tissues across different groups. Additionally, the NASH-CRN scoring system was employed to assess NAS scores. (5) Detection of Proteins Associated with Non-Alcoholic Steatohepatitis
# [2] = Body weight of rats, high-fat diet + CCl4 non-alcoholic steatohepatitis model; conditions: positive control group, in g (unit assumed)
# Procedure: (§2) The normal control group were fed a standard diet while the other groups were exclusively fed a high-fat diet consisting of 88% basal diet +10% lard +2% cholesterol for the initial six weeks. Starting from the seventh week, they received subcutaneous injections of a 30% CCl4 olive oil solution at a dosage of 0.2 ml/100 g behind their back twice per week for a total of four times. Once the model was successfully replicated, the corresponding drugs were administered orally (10 ml/kg) in each treatment group, and both the normal control group and the model group received equal volumes of a 0.5% CMC-Na solution once daily for ten consecutive weeks. Throughout the experimental period, the rats were provided with ad libitum access to food and water, while the animal chamber was maintained under controlled conditions of quietness, natural lighting, a temperature of 25±0.5° C., and a humidity level of 55±5%. The rats' body weights were measured once per week and recorded.
# The weight changes of rats in each group were compared by conducting weekly weigh-ins after the experiment.
# [3] = test system: rats with nonalcoholic steatohepatitis induced by a high-fat diet and CCl4; assay: Liver histopathology (HE, oil red, Masson staining), high-fat diet and CCl4 model; conditions: positive control groups and NR218 high-, medium-, low-dose groups
# Procedure: as §2
# After collecting blood samples from the abdominal aorta of rats, the liver tissue was isolated and fixed in a 10% neutral formalin solution. Following standard procedures for embedding, sectioning, dewaxing, staining, clearing, and sealing, the liver tissues were subjected to HE (hematoxylin-eosin), Masson's trichrome, and oil red staining techniques respectively. […]
# [4] = test system: rats with nonalcoholic steatohepatitis induced by a high-fat diet and CCl4; assay: Four indices of serum hepatic fibrosis, high-fat diet and CCl4 model; conditions: positive control group
# Procedure: as §2, with “Starting” for “The normal control group were fed a standard diet while the other groups were exclusively fed a high-fat diet consisting of 88% basal diet +10% lard +2% cholesterol for the initial six weeks. Starting”
# (§3) At the end of the tenth week of administration, all rats underwent a 16-hour fasting period following their final administration and were intraperitoneally injected with a 20% ulinastatin solution (10 ml/kg) for anesthesia. Subsequently, blood samples were collected from the abdominal aorta and allowed to stand for one hour, and then centrifuged at 4° C. for fifteen minutes at a speed of 3000 r/min. Finally, the upper serum was stored at −80° C. Following the instructions provided with the biochemical index detection kit, levels of HDL-C, LDL-C, NEFA, AST, ALT, UA, TC, TG, PCIII, IV-C LN and HA in rat serum were determined.
# [5] = Body weight of rats, high-fat diet non-alcoholic steatohepatitis model; conditions: positive control group, in g (unit assumed)
# Procedure: as §1
# The rats were weighed weekly to monitor the fluctuations in body weight within each experimental group.
# [6] = test system: rats with nonalcoholic steatohepatitis induced by a high-fat diet and CCl4; assay: Serum biochemical indices, high-fat diet and CCl4 model; conditions: end of tenth week of administration, positive control group; for HOMA-IR: FPG x FINS/22.5
# Procedure: as §2, with “Starting” for “The normal control group were fed a standard diet while the other groups were exclusively fed a high-fat diet consisting of 88% basal diet +10% lard +2% cholesterol for the initial six weeks. Starting”
# as §3
# According to the kit instructions, the concentration of fasting plasma glucose (FPG) in serum was determined using colorimetry, while the concentration of fasting insulin (FINS) in serum was measured through radioimmunoassay.
# [7] = test system: rats with nonalcoholic steatohepatitis induced by a high-fat diet and CCl4; assay: Liver indices, non-alcoholic steatohepatitis model induced by high-fat diet and CCl4; conditions: positive control group
# Procedure: as §2
# After blood sampling from the abdominal aorta of rats, the liver tissue was isolated, rinsed with normal saline solution, dried using filter paper, weighed accurately, and subsequently calculated the Liver indices: Liver indices=wet liver weight/body weight×100%.
compound,measurement,setting,value
CC[C@H](C)C(=O)O[C@H]1C[C@@H](C)C=C2C=C[C@H](C)[C@H](CC[C@@H]3C[C@@H](O)CC(=O)O3)[C@H]21 [Lovastatin],liver indices versus model group (in words),"[1]; NR218 at high, medium and low doses, P<0.01 or P<0.05",significant decrease compared to the model group
same,Liver Indices,[1],3.23 ± 0.56 %
same,body weight,[2]; week 1,195.70 ± 6.24
same,body weight,[2]; week 2,253.01 ± 9.37
same,body weight,[2]; week 3,315.37 ± 15.71
same,body weight,[2]; week 4,368.78 ± 19.25
same,body weight,[2]; week 5,409.85 ± 24.64
same,body weight,[2]; week 6,439.81 ± 28.73
same,body weight,[2]; week 7,470.75 ± 34.51
same,body weight,[2]; week 8,491.21 ± 35.35
same,body weight,[2]; week 9,491.46 ± 34.37
same,body weight,[2]; week 10,503.05 ± 37.51
same,body weight,[2]; week 11,486.62 ± 44.00
same,body weight,[2]; week 12,506.22 ± 46.50
same,body weight,[2]; week 13,530.00 ± 54.43
same,body weight,[2]; week 14,531.16 ± 48.26
same,body weight,[2]; week 15,525.60 ± 53.49
same,body weight,[2]; week 16,539.63 ± 46.78
same,body weight,[2]; week 17,555.78 ± 49.24
same,body weight,[2]; week 18,561.12 ± 51.49
same,Oil red O staining of liver tissue (in words),[3],significantly ameliorated steatosis severity and reduced lipid droplet content
same,IV-C,[4],15.59 ± 7.47 µg/L
same,PC-III,[4],10.52 ± 2.34 µg/L
same,body weight,[5]; week 0 (pre-administration),196.21 ± 4.57
same,body weight,[5]; week 1 (pre-administration),258.64 ± 9.56
same,body weight,[5]; week 2 (pre-administration),315.91 ± 19.58
same,body weight,[5]; week 3 (pre-administration),356.16 ± 26.94
same,body weight,[5]; week 4 (pre-administration),392.60 ± 32.93
same,body weight,[5]; week 5 (pre-administration),432.81 ± 38.14
same,body weight,[5]; week 6 (pre-administration),464.35 ± 45.01
same,body weight,[5]; week 7 (pre-administration),482.88 ± 44.36
same,body weight,[5]; week 8 (pre-administration),503.37 ± 45.95
same,body weight,[5]; week 9 (pre-administration),530.26 ± 48.68
same,body weight,[5]; week 10 (pre-administration),548.47 ± 45.65
same,body weight,[5]; week 11 (pre-administration),547.23 ± 54.49
same,body weight,[5]; week 12 (pre-administration),543.06 ± 66.86
same,body weight,[5]; week 13,534.63 ± 62.63
same,body weight,[5]; week 14,542.19 ± 52.03
same,body weight,[5]; week 15,543.36 ± 47.44
same,body weight,[5]; week 16,547.25 ± 37.26
same,body weight,[5]; week 17,561.64 ± 53.62
same,body weight,[5]; week 18,593.39 ± 48.55
same,body weight,[5]; week 19,615.74 ± 52.23
same,body weight,[5]; week 20,600.22 ± 50.84
same,HOMA-IR,[6],5.50
same,ALT,[6]; serum,43.66 U/L
same,AST,[6]; serum,69.18 U/L
same,HDL-C,[6]; serum,1.31 mmol/L
same,LDL-C,[6]; serum,1.20 mmol/L
same,NEFA,[6]; serum,0.76 mmol/L
same,Liver Indices,[7],3.56 ± 0.49%
"CC[C@H]1[C@@H](O)[C@@H]2[C@H](CC[C@]3(C)[C@@H]([C@H](C)CCC(=O)O)CC[C@@H]23)[C@@]2(C)CC[C@@H](O)C[C@@H]12 [Ocaliva, Obercholic acid]",Liver Indices,[1],2.95 ± 0.68 %
same,body weight,[2]; week 1,192.12 ± 5.16
same,body weight,[2]; week 2,251.85 ± 11.78
same,body weight,[2]; week 3,316.12 ± 16.31
same,body weight,[2]; week 4,359.50 ± 15.40
same,body weight,[2]; week 5,389.95 ± 30.78
same,body weight,[2]; week 6,432.14 ± 23.79
same,body weight,[2]; week 7,462.23 ± 28.00
same,body weight,[2]; week 8,487.97 ± 30.51
same,body weight,[2]; week 9,487.63 ± 39.07
same,body weight,[2]; week 10,505.41 ± 41.23
same,body weight,[2]; week 11,493.66 ± 55.42
same,body weight,[2]; week 12,509.99 ± 49.38
same,body weight,[2]; week 13,532.39 ± 48.08
same,body weight,[2]; week 14,532.75 ± 52.06
same,body weight,[2]; week 15,498.86 ± 46.37
same,body weight,[2]; week 16,493.95 ± 43.25
same,body weight,[2]; week 17,515.43 ± 41.21
same,body weight,[2]; week 18,525.15 ± 42.35
same,HA,[4],50.19 ± 17.94 µg/L
same,IV-C,[4],15.40 ± 7.08 µg/L
same,LN,[4],118.43 ± 39.88 µg/L
same,PC-III,[4],10.82 ± 1.64 µg/L
same,body weight,[5]; week 0 (pre-administration),197.61 ± 4.50
same,body weight,[5]; week 1 (pre-administration),257.27 ± 10.59
same,body weight,[5]; week 2 (pre-administration),318.89 ± 11.61
same,body weight,[5]; week 3 (pre-administration),362.58 ± 18.50
same,body weight,[5]; week 4 (pre-administration),403.03 ± 23.75
same,body weight,[5]; week 5 (pre-administration),439.43 ± 29.45
same,body weight,[5]; week 6 (pre-administration),474.15 ± 35.23
same,body weight,[5]; week 7 (pre-administration),492.08 ± 37.59
same,body weight,[5]; week 8 (pre-administration),520.77 ± 41.63
same,body weight,[5]; week 9 (pre-administration),548.10 ± 47.45
same,body weight,[5]; week 10 (pre-administration),552.73 ± 51.34
same,body weight,[5]; week 11 (pre-administration),552.52 ± 56.26
same,body weight,[5]; week 12 (pre-administration),570.97 ± 53.36
same,body weight,[5]; week 13,552.25 ± 68.34
same,body weight,[5]; week 14,551.61 ± 63.47
same,body weight,[5]; week 15,559.94 ± 61.90
same,body weight,[5]; week 16,572.35 ± 60.86
same,body weight,[5]; week 17,573.51 ± 72.23
same,body weight,[5]; week 18,599.13 ± 55.71
same,body weight,[5]; week 19,615.97 ± 56.23
same,body weight,[5]; week 20,601.19 ± 60.01
same,HOMA-IR,[6],4.90
same,ALT,[6]; serum,54.91 U/L
same,AST,[6]; serum,62.32 U/L
same,HDL-C,[6]; serum,1.30 mmol/L
same,LDL-C,[6]; serum,1.29 mmol/L
same,NEFA,[6]; serum,0.69 mmol/L
same,TC,[6]; serum,1.76 mmol/L
same,TG,[6]; serum,0.50 mmol/L
same,UA,[6]; serum,106 µmol/L
same,Liver Indices,[7],3.57 ± 0.31%
